Target: ROCK2 (human) (UniProt O75116)
Assay: Assessment of ROCK2 Kinase Activity

Chain of ROCK2 (human) (O75116 whole entry, looked up): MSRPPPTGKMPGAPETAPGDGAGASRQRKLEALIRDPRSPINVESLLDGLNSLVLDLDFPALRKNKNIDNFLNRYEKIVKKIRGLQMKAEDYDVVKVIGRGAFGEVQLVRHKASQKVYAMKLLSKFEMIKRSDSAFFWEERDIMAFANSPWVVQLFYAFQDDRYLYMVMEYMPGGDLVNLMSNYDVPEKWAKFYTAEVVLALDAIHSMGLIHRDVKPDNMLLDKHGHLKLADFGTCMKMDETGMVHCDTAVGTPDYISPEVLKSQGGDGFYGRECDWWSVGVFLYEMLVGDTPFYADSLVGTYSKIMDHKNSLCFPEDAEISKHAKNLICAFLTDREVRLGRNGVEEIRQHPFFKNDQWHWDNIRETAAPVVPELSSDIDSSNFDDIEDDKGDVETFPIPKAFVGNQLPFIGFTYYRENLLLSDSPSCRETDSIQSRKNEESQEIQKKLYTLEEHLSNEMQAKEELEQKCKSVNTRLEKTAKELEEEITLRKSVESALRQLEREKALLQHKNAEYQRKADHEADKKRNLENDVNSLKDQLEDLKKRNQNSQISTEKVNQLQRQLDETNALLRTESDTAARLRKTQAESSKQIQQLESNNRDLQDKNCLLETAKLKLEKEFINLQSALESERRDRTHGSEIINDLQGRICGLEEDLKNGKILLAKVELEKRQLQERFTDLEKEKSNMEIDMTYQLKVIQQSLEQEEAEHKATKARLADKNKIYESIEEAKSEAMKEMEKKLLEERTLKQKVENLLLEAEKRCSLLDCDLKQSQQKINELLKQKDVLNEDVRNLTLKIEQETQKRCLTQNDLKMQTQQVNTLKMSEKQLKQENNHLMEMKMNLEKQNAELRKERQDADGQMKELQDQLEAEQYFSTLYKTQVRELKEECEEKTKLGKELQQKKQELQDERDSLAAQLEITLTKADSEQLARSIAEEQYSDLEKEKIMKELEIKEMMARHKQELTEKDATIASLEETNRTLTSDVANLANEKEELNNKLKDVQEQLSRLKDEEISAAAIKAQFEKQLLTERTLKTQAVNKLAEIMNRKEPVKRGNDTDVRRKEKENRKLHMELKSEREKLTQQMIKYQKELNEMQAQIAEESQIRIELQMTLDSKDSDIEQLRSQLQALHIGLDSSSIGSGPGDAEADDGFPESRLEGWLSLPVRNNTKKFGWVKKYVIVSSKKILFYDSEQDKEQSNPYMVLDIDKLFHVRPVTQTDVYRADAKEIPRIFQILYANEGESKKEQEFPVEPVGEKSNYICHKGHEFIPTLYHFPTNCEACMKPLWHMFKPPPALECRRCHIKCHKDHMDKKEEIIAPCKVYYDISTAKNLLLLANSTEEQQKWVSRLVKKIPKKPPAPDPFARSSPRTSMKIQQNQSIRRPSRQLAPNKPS

SMILES	IC50 [nM]
N[C@H]1CCC[C@@H](Oc2cc3cc[nH]c(=O)c3cc2Cl)CC1	≤ 1000
CN1CCN([C@H]2CC[C@@H](Oc3cc4cc[nH]c(=O)c4cc3Cl)CC2)CC1	≤ 1000
Cc1cc2c(=O)[nH]ccc2cc1O[C@@H]1CCC[C@H](N)CC1	≤ 1000
NC(=O)C1CCN(C2CCC(Oc3cc4cc[nH]c(=O)c4cc3Cl)CC2)CC1 (centres undefined)	≤ 1000
O=C(CC1CCNCC1)N[C@H]1CC[C@@H](Oc2cc3cc[nH]c(=O)c3cc2Cl)CC1	≤ 1000
O=c1[nH]ccc2cc(OC3CCC(N4CCCCC4)CC3)c(Cl)cc12 (centres undefined)	≤ 1000
O=C(CCC1CCNCC1)N[C@H]1CC[C@@H](Oc2cc3cc[nH]c(=O)c3cc2Cl)CC1	≤ 1000
CCC[C@]1(N)CCC[C@@H](Oc2cc3cc[nH]c(=O)c3cc2Cl)CCC1	≤ 1000
N[C@H]1C[C@H](COc2cc3cc[nH]c(=O)c3cc2Cl)C1	≤ 1000
O=c1[nH]ccc2cc(O[C@H]3CC[C@@H](N4CCCC4)CC3)c(Cl)cc12	≤ 1000
N[C@H]1CC[C@H](Oc2cc3cc[nH]c(=O)c3cc2Cl)C1	≤ 1000
NC1CC(Oc2cc3cc[nH]c(=O)c3cc2Cl)C1 (centres undefined)	≤ 1000
O=c1[nH]ccc2cc(O[C@H]3CC[C@H](N4CCOCC4)CC3)c(Cl)cc12	≤ 1000
O=C(O)CN[C@H]1CC[C@@H](Oc2cc3cc[nH]c(=O)c3cc2Cl)CC1	≤ 1000
CCC[C@]1(N)CCC[C@H](Oc2cc3cc[nH]c(=O)c3cc2Cl)CCC1	≤ 1000
N[C@@H]1CC[C@H](Oc2ccc3c(=O)[nH]ccc3c2)C1	≤ 1000
O=c1[nH]ccc2cc(O[C@H]3CC[C@H](N4CCCC4)CC3)c(Cl)cc12	≤ 1000
CN1CCN([C@H]2CC[C@H](Oc3cc4cc[nH]c(=O)c4cc3Cl)CC2)CC1	≤ 1000
O=c1[nH]ccc2cc(O[C@H]3CC[C@@H](N4CCOCC4)CC3)c(Cl)cc12	≤ 1000

— the Kinase Knowledgebase extract (Sharma et al. 2016)
